Measurements taken from patent US5679678A, “Thienithiazine derivatives” (Chemisch Pharmazeutische Forschungsgesellschaft m.b.H., priority 1991, dated 1997).

Tests used:
5-lipoxygenase = target: T1, 5-lipoxygenase (Rattus norvegicus, UniProt P12527); assay: Formation of leucotrien B4 by neutrophils (measure of 5-lipoxygenase activity), A23187 stimulated, RIA; type: cell-based, Sprague-Dawley rats; details: rat peritoneal neutrophils (lambda-carageenan), 5 min preincubation at 37° C., A23187 2 μmol/l, read-out: IC50 LTB4
T1 construct: endogenous in cells; host or cells: peritoneal neutrophils of male Sprague-Dawley rats, elicited by i.p. carrageenan (16 h)
T1 sequence (P12527 1-673): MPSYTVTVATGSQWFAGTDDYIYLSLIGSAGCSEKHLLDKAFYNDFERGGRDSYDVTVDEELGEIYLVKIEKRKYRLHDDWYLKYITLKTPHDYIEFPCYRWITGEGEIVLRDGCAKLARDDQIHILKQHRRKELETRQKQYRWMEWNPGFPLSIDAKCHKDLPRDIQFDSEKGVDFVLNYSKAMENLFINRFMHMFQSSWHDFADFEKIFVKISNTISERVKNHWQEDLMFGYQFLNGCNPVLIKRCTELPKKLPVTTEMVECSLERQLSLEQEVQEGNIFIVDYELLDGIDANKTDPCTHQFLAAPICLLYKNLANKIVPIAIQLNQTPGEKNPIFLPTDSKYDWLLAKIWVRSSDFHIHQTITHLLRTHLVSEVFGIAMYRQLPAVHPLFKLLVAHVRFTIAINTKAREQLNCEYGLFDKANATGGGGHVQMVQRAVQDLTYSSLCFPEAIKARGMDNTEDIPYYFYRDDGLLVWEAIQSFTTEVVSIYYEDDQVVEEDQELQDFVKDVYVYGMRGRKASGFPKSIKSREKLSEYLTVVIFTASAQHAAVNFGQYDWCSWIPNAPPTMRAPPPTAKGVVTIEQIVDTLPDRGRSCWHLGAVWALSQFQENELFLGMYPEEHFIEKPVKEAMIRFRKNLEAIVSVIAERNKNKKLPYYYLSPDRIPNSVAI
Description: (§1) The formation of prostaglandin D2 by neutrophils was used as a measure of the cyclooxygenase activity, and the formation of leucotrien B4 as a measure of the 5-lipoxygenase activity.
(§2) Male Sprague-Dawley rats (250-300 g) received 1 mg of lambda-carageenan (dissolved in 0.5 ml of distilled water) injected intraperitoneally.
(§3) After 16 hours, the rats were sacrificed by exposure to diethyl ether. 15 ml of Hanks balanced salt solution (HBSS) were injected i.p., the neutrophils were harvested by aspiration (10 ml) and were centrifuged (5 min, 100 g, 4° C.), the supernatant solution was decanted, and the cells were resuspended in HBSS at 4° C. to a concentration of 5×10^6 cells/ml.
(§4) 400 μl of cell suspension (2×10^6 cells), […] of compound dissolved in DMSO and 49.5 μl of HBSS were incubated at 37° C. for 5 min. Then 50 μl of A23187 (2 μmol/1 final concentration) were added and subsequently the mixture was again incubated at 37° C. for 5 min.
(§5) The reaction was stopped by centrifugation at 10,000 g for 3 s, and the supernatant liquid was transferred into precooled plastic tubes and left in an ice bath for a maximum of 1 h before starting the radioimmunoassay measurement.
(§6) PGD2 and LTB4 were measured after dilution with HBSS using commercial RIA kits.
(§7) The comparison substance was 6-chloro-2-methyl-N-(2-pyridyl)-2H-thieno[2,3-e]-1,2-thiazine-3-carboxamide 1,1-dioxide ("LORNOXICAM", Compound A).

cyclooxygenase = assay: Formation of prostaglandin D2 by neutrophils (measure of cyclooxygenase activity), A23187 stimulated, RIA; type: cell-based, Sprague-Dawley rats; details: rat peritoneal neutrophils (lambda-carageenan), 5 min preincubation at 37° C., A23187 2 μmol/l, read-out: IC50 PGD2
Description: as §1, §2, §3, §4, §5, §6, §7

| Compound | IC50 (5-lipoxygenase) | IC50 (cyclooxygenase) |
| --- | --- | --- |
| CN1C(C(=O)Nc2nccs2)=C(O)c2sc(Cl)cc2S1(=O)=O [Compound 1, 6-Chloro-4-hydroxy-2-methyl-N-(2-thiazolyl)-2H-thieno[2,3-e]-1,2-thiazine-3-carboxamide 1,1-dioxide] | > 10000 nM | 17 nM |
| CN1C(C(=O)Nc2nc(-c3ccccc3)cs2)=C(O)c2sc(Cl)cc2S1(=O)=O [Compound 2, 6-Chloro-4-hydroxy-2-methyl-N-(4phenyl-2-thiazolyl)-2H-thieno[2,3-e]-1,2-thiazine-3-carboxamide 1,1-dioxide] | > 10000 nM | 27 nM |
| CN1C(C(=O)Nc2nc(-c3ccccc3)cs2)=C(O)c2sc(-c3ccco3)cc2S1(=O)=O [Compound 3, 6-(2-Furyl)-4-hydroxy-2-methyl-N-(4-phenyl-2thiazolyl)-2H-thieno[2,3-e]-1,2-thiazine-3-carboxamide 1,1-dioxide] | 5200 nM | 17 nM |
| CN1C(C(=O)Nc2nc(-c3ccc(Oc4ccc(F)cc4)o3)cs2)=C(O)c2sc(Cl)cc2S1(=O)=O [Compound 4, 6-Chloro-N-{4-[5-(4-fluorophenoxy)-2-furanyl]-2-thiazolyl}-4-hydroxy-2-methyl-2H-thieno[2,3-e]-1,2-thiazine-3-carboxamide 1,1-dioxide] | 470 nM | 3400 nM |
| CN1C(C(=O)Nc2nc(-c3ccc(Oc4ccc(F)cc4)o3)cs2)=C(O)c2sc(-c3ccco3)cc2S1(=O)=O [Compound 5, N-{4[5-(4-Fluorophenoxy)-2-furanyl]-2-thiazolyl}-6-(2-furanyl)-4-hydroxy-2-methyl-2H-thieno[2,3-]-1,2-thiazine-3-carboxamide 1,1-dioxide] | 660 nM | 270 nM |
| CN1C(C(=O)Nc2nc(-c3ccc(-c4ccc(F)cc4)o3)cs2)=C(O)c2sc(Cl)cc2S1(=O)=O [Compound 6, 6-Chloro-N-{4-[5-(4-fluorophenyl)-2-furanyl]-2-thiazolyl}-4-hydroxy-2-methyl-2H-thieno[2,3-e]-1,2-thiazine-3-carboxamide 1,1-dioxide] | 580 nM | 3600 nM |
| CN1C(C(=O)Nc2nc(-c3ccc(-c4ccc(F)cc4)o3)cs2)=C(O)c2sc(-c3ccco3)cc2S1(=O)=O [Compound 7, N-{4-[5-(4-Fluorophenyl)-2-furanyl]-2-thiazolyl}-6-(2-furanyl)-4-hydroxy-2-methyl-2H-thieno[2,3-e]-1,2-thiazine-3-carboxmide 1,1-dioxide] | 730 nM | 1600 nM |
| CN1C(C(=O)Nc2nc(-c3cc4ccccc4o3)cs2)=C(O)c2sc(Cl)cc2S1(=O)=O [Compound 8, N-[4-(2-Benzo[b]furanyl)-2-thiazolyl]-6-chloro-4-hydroxy-2-methyl-2H-thieno[2,3-e]-1,2-thiazine-3-carboxamide 1,1-dioxide] | 2200 nM | 100 nM |
| CN1C(C(=O)Nc2nc(-c3cc4ccccc4o3)cs2)=C(O)c2sc(-c3ccco3)cc2S1(=O)=O [Compound 9, N-[4-(2-Benzo[b]furanyl)-2-thiazolyl]-6-(2-furanyl)-4-hydroxy-2-methyl-2H-thieno[2,3-e]-1,2-thiazine-3-carboxamide 1,1-dioxide] | 1600 nM | 39 nM |
| CN1C(C(=O)Nc2nc(-c3cc4ccccc4o3)co2)=C(O)c2sc(-c3ccco3)cc2S1(=O)=O [Compound 11] | 2100 nM | 200 nM |
| CN1C(C(=O)Nc2nc(-c3cc4ccccc4s3)co2)=C(O)c2sc(Cl)cc2S1(=O)=O [Compound 12, N-[4-(2-Benzo[b]thienyl)-2-oxazolyl]-6-chloro-4-hydroxy-2-methyl-2H-thieno[2,3e]-thiazine-3-carboxamide 1,1-dioxide] | 2700 nM | 190 nM |
| CN1C(C(=O)Nc2ccccn2)=C(O)c2sc(-c3ccccc3)cc2S1(=O)=O [Compound 14, 4-Hydroxy-2-methyl-6-phenyl-N-(2-pyridinyl)-2H-thieno-[2,3-e]-1,2-thiazine-3-carboxamide 1,1-dioxide] | > 10000 nM | 38 nM |
| CN1C(C(=O)Nc2ccccn2)=C(O)c2sc(-c3cccs3)cc2S1(=O)=O [Compound 15, 4-Hydroxy-2-methyl-N-(2-pyridinyl)-6-(2-thienyl)-2H-thieno[2,3-e]-1,2-thiazine-3-carboxamide 1,1-dioxide] | > 10000 nM | 3.5 nM |
| CN1C(C(=O)Nc2ccccn2)=C(O)c2sc(-c3ccco3)cc2S1(=O)=O [Compound 16, 6-(2-Furyl)-4-hydroxy-2-methyl-N-(2-pyridinyl)-2H-thieno[2,3-e]-1,2-thiazine-3-carboxamide 1,1-dioxide] | > 10000 nM | 9.6 nM |
| CN1C(C(=O)Nc2cccc(-c3cc4ccccc4o3)n2)=C(O)c2sc(-c3ccccc3)cc2S1(=O)=O [Compound 17, N-[6-(2-Benzo[b]furyl)-2-pyridinyl]-4-hydroxy-2-methyl-6-phenyl-2H-thieno[2,3-e]-1,2-thiazine-3-carboxamide 1,1-dioxide] | 1300 nM | 190 nM |
| CN1C(C(=O)Nc2cccc(-c3cc4ccccc4o3)n2)=C(O)c2sc(-c3cccs3)cc2S1(=O)=O [Compound 18, N-[6-(2-Benzo[b]furyl)-2-pyridinyl]-4-hydroxy-2-methyl-6-(2-thienyl)-2H-thieno[2,3-e]-1,2-thiazine-3-carboxamide 1,1-dioxide] | 1300 nM | 68 nM |
| CN1C(C(=O)Nc2cccc(-c3cc4ccccc4o3)n2)=C(O)c2sc(-c3ccco3)cc2S1(=O)=O [Compound 19, N-[6-(2-Benzo[b]furyl)-2-pyridinyl]-6-(2-furyl)-4-hydroxy-2-methyl-2H-thieno[2,3e]-1,2-thiazine-3-carboxamide 1,1-dioxide] | 1400 nM | 39 nM |
| CN1C(C(=O)Nc2ccccn2)=C(O)c2sc(Cl)cc2S1(=O)=O [Compound A, reference compound] | > 10000 nM | 20 nM |
